US20240343699A1, “DERIVATIVES OF SUBSTITUTED MORPHOLINES AND USES THEREOF” (Supernus Pharmaceuticals, Inc., priority 2023, published 2024)
“And” between values parts separate entries of the source, which are not always exact repeats. Equal values may be shown once. Read-outs that look alike come from different tables or passages of the source.

Assays:
[1] = Metabolic stability in rat liver S9; assay type: in vitro ADME, Sprague Dawley rat; set-up: half-life: dose or concentration left out as unconfirmed
Procedure: (§1) Incubation Buffer (PBK): 50 mM potassium phosphate buffer was prepared from 1 M potassium phosphate buffer, pH 7.2. […] The dilution of […] was prepared by 90% methanol/10% DMSO, then 10 μM working solutions were prepared by diluting the 0.1 mM intermediates with 50 mM PBK. […] Prior to use, the stock solutions were brought to room temperature and thoroughly mixed. […] Cofactors Solutions: the mixture of cofactors solution was made at 10 mM of NADPH and 10 mM of UDPGA in PBK buffer.
(§2) The incubation was carried out in 96-well plates. The liver S9 working solutions were added to 96-well plates (80 μL/well) in duplicate. […] Reaction was initiated by adding cofactor mixture 10 μL/well. The plates were incubated at 37° C. in a water bath with shaking. […] The final organic solvent content in the incubation was ≤1%.
(§3) At specified time points, i.e., 5, 10, 20, 30 and 60 minutes, NCF60 (without adding NADPH (Nicotinamide-adenine dinucleotide phosphate, reduced form) and UDPGA (Uridine 5′-diphosphoglucuronic acid trisodium salt) replaced with PBK buffer reaction was stopped by adding three volumes of stop solution. The time zero (To) samples were prepared by adding three volumes of stop solution to liver S9 samples, followed by addition of test article or control, and cofactor mixture solution 10 μL/well.
(§4) Subsequently, 100 μL of supernatant.
(§5) Positive controls: 7-ethoxycoumarin and 7-hydroxycoumarin.

[2] = Metabolic stability in dog liver S9; assay type: in vitro ADME, Beagle dog; conditions: for half-life at 1 μM / microsomal CLint at 1 μM: pH 7.2
Procedure: as §1, §2, §3, §4, §5

[3] = Metabolic stability in human liver S9; assay type: in vitro ADME; conditions: for half-life at 1 μM / microsomal CLint at 1 μM: pH 7.2
Procedure: as §1, §2, §3, §4, §5

[4] = Cellular and nuclear receptor functional assays; assay type: cell-based; conditions: human recombinant (CHO cells); for Kb: apparent dissociation constant, modified Cheng Prusoff equation, read-out: kB, 5-HT2B(h) (antagonist effect); for IC50: serotonin (30 nM), IP1, HTRF, read-out: IC50, 5-HT2B(h) (antagonist effect)
Procedure: A study was conducted to test 5 compounds in cellular and nuclear receptor functional and enzyme and uptake assays.
The results are expressed as a percent of control agonist response or inverse agonist response and as a percent inhibition of control agonist response
The EC50 values (concentration producing a half-maximal response) and IC50 values (concentration causing a half-maximal inhibition of the control agonist response) were determined by non-linear regression analysis of the concentration-response curves generated with mean replicate values using Hill equation curve fitting […]
where Y=response, A=left asymptote of the curve, D=right asymptote of the curve, C=compound concentration, and C50=EC50 or IC50, and nH=slope factor. This analysis was performed using software developed at Cerep (Hill software) and validated by comparison with data generated by the commercial software SigmaPlot® 4.0 for Windows® (© 1997 by SPSS Inc.).
For the antagonists, the apparent dissociation constants (KB) were calculated using the modified Cheng Prusoff equation where A=concentration of reference agonist in the assay, and EC50A=EC50 value of the reference agonist.
In Vitro Pharmacology. Results showing an inhibition (or stimulation for assays run in basal conditions) higher than 50% were considered to represent significant effects of the test compounds. Results showing an inhibition (or stimulation) between 25% and 50% are indicative of weak to moderate effects. Results showing an inhibition (or stimulation) lower than 25% were not considered significant and mostly attributable to variability of the signal around the control level.

hNav1.5 = molecular target: T1, hNav1.5 (Homo sapiens, UniProt Q14524); test: Nav1.5 human sodium ion channel cell based automated patch clamp assay (QPatch HT); conditions: Antagonist
T1 construct: CYL6004QP2DR
Procedure: Electrophysiological assays were conducted to profile five compounds for activities on the ion channel target using the QPatch HT electrophysiological platform.
CYL6004QP2DR Nav1.5 Human Sodium Ion Channel Cell Based Automated Patch Clamp Assay. Cells were held at −120 mV for 100 ms, stepped to −130 mV for 100 ms, and stepped back to −120 mV for 100 ms to measure the leak current. Na channels exist in a) resting or closed state at −120 mV, b) a transient open state that inactivates to c) inactivated state at −10 mV. Na current inhibition within 1-2 ms of channel opening at −10 mV is open channel inhibition (pulse 1). […] Pulse 1 and 2 are used to investigate drug binding to the open state and inactivated state of the Na channels, respectively. Each concentration of compound was applied for 5 minutes.
Current amplitudes more than 200 pA at the control stage were analyzed. The amplitude of the current was calculated by measuring the difference between the peak inward current on stepping to −10 mV (i.e. peak of the current) and remaining current at the end of the step. The current was assessed in vehicle control conditions and then at the end of each five (5) minute compound application.

[5] = 80 mg/kg PO
[6] = Protein binding in CD-1 mouse plasma (equilibrium dialysis); conditions: dialysis conditions; no binding reported
[7] = 1 μM in SD Rat liver S9 fractions
[8] = Sprague-Dawley, pH 7.2, 1 μM in SD Rat liver S9 fractions
[9] = Sprague-Dawley, pH 7.2, 1 μM in SD Rat liver S9 fractions, read-out: CLint(mic.)
[10] = 1 μM in Beagle Dog liver S9 fractions
[11] = 1 μM in Beagle Dog liver S9 fractions, read-out: CLint(mic.)
[12] = 1 μM in Human liver S9 fractions
[13] = 1 μM in Human liver S9 fractions, read-out: CLint(mic.)
[14] = Pulse 1 (open state), read-out: Estimated IC50 (Pulse 1)
[15] = Pulse 2 (inactivated state), read-out: Estimated IC50 (Pulse 2)
[16] = rat liver S9, 1 μM, NCF60 (no cofactors, 60 min)
[17] = dog liver S9, 1 μM, NCF60 (no cofactors, 60 min)
[18] = human liver S9, 1 μM, NCF60 (no cofactors, 60 min)

T1 sequence (Q14524 whole entry): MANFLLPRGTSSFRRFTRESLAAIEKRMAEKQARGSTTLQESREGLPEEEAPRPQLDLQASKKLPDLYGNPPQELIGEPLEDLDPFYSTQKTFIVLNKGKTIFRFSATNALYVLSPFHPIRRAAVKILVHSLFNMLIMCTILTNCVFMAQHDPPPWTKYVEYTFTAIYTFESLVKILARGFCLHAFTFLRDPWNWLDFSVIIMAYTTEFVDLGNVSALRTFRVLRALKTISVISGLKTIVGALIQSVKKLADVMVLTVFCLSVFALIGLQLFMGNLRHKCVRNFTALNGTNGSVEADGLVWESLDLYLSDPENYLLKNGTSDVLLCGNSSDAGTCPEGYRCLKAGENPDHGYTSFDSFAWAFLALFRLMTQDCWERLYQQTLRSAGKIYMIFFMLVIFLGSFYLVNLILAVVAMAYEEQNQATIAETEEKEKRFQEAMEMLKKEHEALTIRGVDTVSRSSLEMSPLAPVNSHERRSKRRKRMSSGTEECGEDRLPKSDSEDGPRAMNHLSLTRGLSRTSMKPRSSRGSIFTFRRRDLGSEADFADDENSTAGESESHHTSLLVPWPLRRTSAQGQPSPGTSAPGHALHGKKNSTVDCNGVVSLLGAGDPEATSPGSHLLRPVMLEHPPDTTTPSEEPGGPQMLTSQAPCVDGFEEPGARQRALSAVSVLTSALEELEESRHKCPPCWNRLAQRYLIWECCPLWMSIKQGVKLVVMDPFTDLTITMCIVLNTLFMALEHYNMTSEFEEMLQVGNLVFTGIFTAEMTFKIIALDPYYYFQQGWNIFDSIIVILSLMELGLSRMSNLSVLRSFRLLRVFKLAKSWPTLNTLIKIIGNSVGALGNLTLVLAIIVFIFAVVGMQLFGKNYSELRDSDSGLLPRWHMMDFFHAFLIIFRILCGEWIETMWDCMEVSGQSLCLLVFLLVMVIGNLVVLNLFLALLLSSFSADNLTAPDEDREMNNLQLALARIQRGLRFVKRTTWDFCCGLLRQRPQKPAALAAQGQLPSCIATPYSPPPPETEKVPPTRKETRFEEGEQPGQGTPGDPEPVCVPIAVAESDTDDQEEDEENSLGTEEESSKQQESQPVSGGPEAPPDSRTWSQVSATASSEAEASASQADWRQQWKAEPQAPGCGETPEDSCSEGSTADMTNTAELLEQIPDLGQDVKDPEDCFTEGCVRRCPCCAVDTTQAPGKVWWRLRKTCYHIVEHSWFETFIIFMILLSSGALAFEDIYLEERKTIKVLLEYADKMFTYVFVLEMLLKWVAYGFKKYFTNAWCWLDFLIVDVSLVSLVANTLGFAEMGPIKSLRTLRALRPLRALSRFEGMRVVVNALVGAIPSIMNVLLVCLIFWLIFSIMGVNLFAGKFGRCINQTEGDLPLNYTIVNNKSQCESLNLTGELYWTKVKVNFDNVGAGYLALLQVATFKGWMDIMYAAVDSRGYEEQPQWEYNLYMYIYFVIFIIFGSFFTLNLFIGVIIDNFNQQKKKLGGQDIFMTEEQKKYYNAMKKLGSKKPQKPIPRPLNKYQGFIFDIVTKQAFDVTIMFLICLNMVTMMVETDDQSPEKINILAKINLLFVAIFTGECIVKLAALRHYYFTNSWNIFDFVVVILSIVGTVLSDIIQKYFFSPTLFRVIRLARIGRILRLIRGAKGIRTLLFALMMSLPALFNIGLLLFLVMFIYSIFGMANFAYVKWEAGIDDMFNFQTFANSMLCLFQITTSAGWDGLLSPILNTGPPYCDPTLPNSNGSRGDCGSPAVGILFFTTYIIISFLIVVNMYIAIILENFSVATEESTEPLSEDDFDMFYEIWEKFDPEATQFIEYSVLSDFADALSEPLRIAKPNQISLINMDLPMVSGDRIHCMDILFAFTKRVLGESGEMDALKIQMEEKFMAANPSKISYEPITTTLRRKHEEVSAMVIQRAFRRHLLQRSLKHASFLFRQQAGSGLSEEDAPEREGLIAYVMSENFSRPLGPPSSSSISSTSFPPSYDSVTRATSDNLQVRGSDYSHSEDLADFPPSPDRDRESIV

CCOc1ccccc1OCC1CN(C(=O)OC(OC(=O)[C@@H](N)C(C)C)C(C)C)CCO1 (stereo partly shown) [COMPOUND E]
% Remaining at 60 min [1, 7]: 0.00%
half-life at 1 μM [1, 8]: 4.8 min
microsomal CLint at 1 μM [1, 9]: 290 µL/min/mg
% Remaining at 60 min [2, 10]: 0.25%
half-life at 1 μM [2, 10]: 8.3 min
microsomal CLint at 1 μM [2, 11]: 167 µL/min/mg
% Remaining at 60 min [3, 12]: 0.76%
half-life at 1 μM [3, 12]: 8.9 min
microsomal CLint at 1 μM [3, 13]: 155 µL/min/mg
Kb [4]: 0.63 µM
IC50 [4]: 4.2 µM
IC50 (hNav1.5; [14]): 92.6 µM
IC50 (hNav1.5; [15]): 5.7 µM

CCOc1ccccc1OC[C@@H]1CN(C(=O)OC(C)OC(=O)[C@@H](N)C(C)C)CCO1 (stereo partly shown) [COMPOUND A]
half-life ([1]; Sprague Dawley (rat), pH 7.2, rat, dog and human liver S9 incubations (summary over species), read-out: half-lives): 4 to 12 min
half-life at 1 μM ([1]; Sprague Dawley, pH 7.2, rat liver S9, 1 μM): 8.61 min
microsomal CLint at 1 μM ([1]; Sprague Dawley, pH 7.2, rat liver S9, 1 μM, read-out: CLint(LS9)): 161 µL/min/mg
% Remaining ([1]; rat liver S9, 1 μM, 0 min): 100%
Analyte Peak area/IS Peak area Mean × 100 (n = 2) ([1]; rat liver S9, 1 μM, 0 min): 10.7
% Remaining ([1]; rat liver S9, 1 μM, 5 min): 6.3%
Analyte Peak area/IS Peak area Mean × 100 (n = 2) ([1]; rat liver S9, 1 μM, 5 min): 0.669
% Remaining ([1]; rat liver S9, 1 μM, 10 min): 5.4%
Analyte Peak area/IS Peak area Mean × 100 (n = 2) ([1]; rat liver S9, 1 μM, 10 min): 0.574
% Remaining ([1]; rat liver S9, 1 μM, 20 min): 3.4%
Analyte Peak area/IS Peak area Mean × 100 (n = 2) ([1]; rat liver S9, 1 μM, 20 min): 0.362
% Remaining ([1]; rat liver S9, 1 μM, 30 min): 1.6%
Analyte Peak area/IS Peak area Mean × 100 (n = 2) ([1]; rat liver S9, 1 μM, 30 min): 0.171
% Remaining ([1]; rat liver S9, 1 μM, 60 min): 0.25%
Analyte Peak area/IS Peak area Mean × 100 (n = 2) ([1]; rat liver S9, 1 μM, 60 min): 0.026
% Remaining [1, 16]: 2.2%
Analyte Peak area/IS Peak area Mean × 100 (n = 2) [1, 16]: 0.237
half-life at 1 μM ([2]; Beagle, dog liver S9, 1 μM): 11 min
microsomal CLint at 1 μM ([2]; Beagle, dog liver S9, 1 μM, read-out: CLint(LS9)): 126 µL/min/mg
% Remaining ([2]; dog liver S9, 1 μM, 0 min): 100%
Analyte Peak area/IS Peak area Mean × 100 (n = 2) ([2]; dog liver S9, 1 μM, 0 min): 12.2
% Remaining ([2]; dog liver S9, 1 μM, 5 min): 8.0%
Analyte Peak area/IS Peak area Mean × 100 (n = 2) ([2]; dog liver S9, 1 μM, 5 min): 0.98
% Remaining ([2]; dog liver S9, 1 μM, 10 min): 8.8%
Analyte Peak area/IS Peak area Mean × 100 (n = 2) ([2]; dog liver S9, 1 μM, 10 min): 1.078
% Remaining ([2]; dog liver S9, 1 μM, 20 min): 5.2%
Analyte Peak area/IS Peak area Mean × 100 (n = 2) ([2]; dog liver S9, 1 μM, 20 min): 0.635
% Remaining ([2]; dog liver S9, 1 μM, 30 min): 3.1%
Analyte Peak area/IS Peak area Mean × 100 (n = 2) ([2]; dog liver S9, 1 μM, 30 min): 0.381
% Remaining ([2]; dog liver S9, 1 μM, 60 min): 0.8%
Analyte Peak area/IS Peak area Mean × 100 (n = 2) ([2]; dog liver S9, 1 μM, 60 min): 0.097
% Remaining [2, 17]: 2.0%
Analyte Peak area/IS Peak area Mean × 100 (n = 2) [2, 17]: 0.248
% Remaining ([3]; human liver S9, 1 μM, 0 min): 100%
Analyte Peak area/IS Peak area Mean × 100 (n = 2) ([3]; human liver S9, 1 μM, 0 min): 11.7
% Remaining ([3]; human liver S9, 1 μM, 5 min): 1.4%
Analyte Peak area/IS Peak area Mean × 100 (n = 2) ([3]; human liver S9, 1 μM, 5 min): 0.164
% Remaining ([3]; human liver S9, 1 μM, 10 min): 1.2%
Analyte Peak area/IS Peak area Mean × 100 (n = 2) ([3]; human liver S9, 1 μM, 10 min): 0.143
% Remaining ([3]; human liver S9, 1 μM, 20 min): 0.3%
Analyte Peak area/IS Peak area Mean × 100 (n = 2) ([3]; human liver S9, 1 μM, 20 min): 0.039
% Remaining ([3]; human liver S9, 1 μM, 30 min): 0.2%
Analyte Peak area/IS Peak area Mean × 100 (n = 2) ([3]; human liver S9, 1 μM, 30 min): 0.021
% Remaining ([3]; human liver S9, 1 μM, 60 min): 0.01% and 0.0%
Analyte Peak area/IS Peak area Mean × 100 (n = 2) ([3]; human liver S9, 1 μM, 60 min): 0.001
% Remaining [3, 18]: 0.1%
Analyte Peak area/IS Peak area Mean × 100 (n = 2) [3, 18]: 0.008
half-life at 1 μM ([3]; human liver S9, 1 μM): 5.76 min
microsomal CLint at 1 μM ([3]; human liver S9, 1 μM, read-out: CLint(LS9)): 241 µL/min/mg
Kb [4]: 1 µM
IC50 [4]: 6.9 µM
IC50 (hNav1.5; [14]): > 100 µM
IC50 (hNav1.5; [15]): 19.6 µM
Clinical observation (tolerability) ([5]; beagle dogs): well tolerated
plasma concentration of the analog itself ([5]; LLOQ 3.0 ng/mL): mostly below the LLOQ
stability in the mouse plasma [6]: instability

CCOc1ccccc1OCC1CN(C(=O)OC(C)OC(=O)[C@H](N)C(C)C)CCO1 (stereo partly shown) [COMPOUND D]
% Remaining at 60 min [1, 7]: 0.48%
half-life at 1 μM [1, 8]: 9.4 min
microsomal CLint at 1 μM [1, 9]: 148 µL/min/mg
% Remaining at 60 min [2, 10]: 3.10%
half-life at 1 μM [2, 10]: 12.6 min
microsomal CLint at 1 μM [2, 11]: 110 µL/min/mg
% Remaining at 60 min [3, 12]: 0.00%
half-life at 1 μM [3, 12]: 1.86 min
microsomal CLint at 1 μM [3, 13]: 746 µL/min/mg
Kb [4]: 0.75 µM
IC50 [4]: 4.9 µM
IC50 (hNav1.5; [14]): > 100 µM
IC50 (hNav1.5; [15]): 14.1 µM
